System: human ventricular trabeculae
Assay: Action potential recording and pro-arrhythmic score analysis in human ventricular trabeculae (hVT);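 further: sharp microelectrode action potential recordings at 37°C in Tyrode-perfused trabeculae, 4 cumulative concentrations each applied 31 min, values averaged over last 30 APs, vehicle 0.1% DMSO as control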
Conditions: 1Hz; for Beat Escape (raw data) / EADs (raw data) / Refractoriness Escape (raw data): n=4 trabeculae

Nc1nnc(-c2cccc(Cl)c2Cl)c(N)n1 [LAMOTRIGINE, Lamotrigine]
AMAX (average raw data) (0.6-FOLD free ETPC (17µM)): 101
AMAX percentage change compared to vehicle control (0.6-FOLD free ETPC (17µM)): -5%
APD30 (average raw data) (0.6-FOLD free ETPC (17µM)): 147
APD30 percentage change compared to vehicle control (0.6-FOLD free ETPC (17µM)): -2%
APD50 (average raw data) (0.6-FOLD free ETPC (17µM)): 197
APD50 percentage change compared to vehicle control (0.6-FOLD free ETPC (17µM)): 0%
APD90 (average raw data) (0.6-FOLD free ETPC (17µM)): 282
APD90 percentage change compared to vehicle control (0.6-FOLD free ETPC (17µM)): 1%
Alternans (average raw data) (0.6-FOLD free ETPC (17µM)): 0.88
Alternans percentage change compared to vehicle control (0.6-FOLD free ETPC (17µM)): -35%
Beat Escape percentage change compared to vehicle control (0.6-FOLD free ETPC (17µM)): 0%
EADs percentage change compared to vehicle control (0.6-FOLD free ETPC (17µM)): 0%
ERP (average raw data) (0.6-FOLD free ETPC (17µM)): 0.44
ERP percentage change compared to vehicle control (0.6-FOLD free ETPC (17µM)): 4%
Max Dispersion (average raw data) (0.6-FOLD free ETPC (17µM)): 4.42
Max Dispersion percentage change compared to vehicle control (0.6-FOLD free ETPC (17µM)): -5%
RMP (average raw data) (0.6-FOLD free ETPC (17µM)): -83
RMP percentage change compared to vehicle control (0.6-FOLD free ETPC (17µM)): -3%
Refractoriness Escape percentage change compared to vehicle control (0.6-FOLD free ETPC (17µM)): 0%
STV (average raw data) (0.6-FOLD free ETPC (17µM)): 0.60
STV percentage change compared to vehicle control (0.6-FOLD free ETPC (17µM)): -26%
Triangulation (average raw data) (0.6-FOLD free ETPC (17µM)): 136
Triangulation percentage change compared to vehicle control (0.6-FOLD free ETPC (17µM)): 3%
Beat Escape (raw data) (0.6-FOLD free ETPC (17µM)): 0
EADs (raw data) (0.6-FOLD free ETPC (17µM)): 0
Refractoriness Escape (raw data) (0.6-FOLD free ETPC (17µM)): 0
AMAX (average raw data) (6-FOLD free ETPC (17µM)): 106
AMAX percentage change compared to vehicle control (6-FOLD free ETPC (17µM)): -1%
APD30 (average raw data) (6-FOLD free ETPC (17µM)): 128
APD30 percentage change compared to vehicle control (6-FOLD free ETPC (17µM)): -15%
APD50 (average raw data) (6-FOLD free ETPC (17µM)): 169
APD50 percentage change compared to vehicle control (6-FOLD free ETPC (17µM)): -14%
APD90 (average raw data) (6-FOLD free ETPC (17µM)): 249
APD90 percentage change compared to vehicle control (6-FOLD free ETPC (17µM)): -11%
Alternans (average raw data) (6-FOLD free ETPC (17µM)): 1.29
Alternans percentage change compared to vehicle control (6-FOLD free ETPC (17µM)): -5%
Beat Escape percentage change compared to vehicle control (6-FOLD free ETPC (17µM)): 0%
EADs percentage change compared to vehicle control (6-FOLD free ETPC (17µM)): 0%
ERP (average raw data) (6-FOLD free ETPC (17µM)): 0.41
ERP percentage change compared to vehicle control (6-FOLD free ETPC (17µM)): -3%
Max Dispersion (average raw data) (6-FOLD free ETPC (17µM)): 5.13
Max Dispersion percentage change compared to vehicle control (6-FOLD free ETPC (17µM)): 10%
RMP (average raw data) (6-FOLD free ETPC (17µM)): -87
RMP percentage change compared to vehicle control (6-FOLD free ETPC (17µM)): 2%
Refractoriness Escape percentage change compared to vehicle control (6-FOLD free ETPC (17µM)): 0%
STV (average raw data) (6-FOLD free ETPC (17µM)): 0.81
STV percentage change compared to vehicle control (6-FOLD free ETPC (17µM)): 302%
Triangulation (average raw data) (6-FOLD free ETPC (17µM)): 121
Triangulation percentage change compared to vehicle control (6-FOLD free ETPC (17µM)): -8%
Beat Escape (raw data) (6-FOLD free ETPC (17µM)): 0
EADs (raw data) (6-FOLD free ETPC (17µM)): 0
Refractoriness Escape (raw data) (6-FOLD free ETPC (17µM)): 0
AMAX (average raw data) (18-FOLD free ETPC (17µM)): 97
AMAX percentage change compared to vehicle control (18-FOLD free ETPC (17µM)): -9%
APD30 (average raw data) (18-FOLD free ETPC (17µM)): 115
APD30 percentage change compared to vehicle control (18-FOLD free ETPC (17µM)): -23%
APD50 (average raw data) (18-FOLD free ETPC (17µM)): 152
APD50 percentage change compared to vehicle control (18-FOLD free ETPC (17µM)): -23%
APD90 (average raw data) (18-FOLD free ETPC (17µM)): 244
APD90 percentage change compared to vehicle control (18-FOLD free ETPC (17µM)): -13%
Alternans (average raw data) (18-FOLD free ETPC (17µM)): 7.23
Alternans percentage change compared to vehicle control (18-FOLD free ETPC (17µM)): 435%
Beat Escape percentage change compared to vehicle control (18-FOLD free ETPC (17µM)): 25%
EADs percentage change compared to vehicle control (18-FOLD free ETPC (17µM)): 0%
ERP (average raw data) (18-FOLD free ETPC (17µM)): 0.39
ERP percentage change compared to vehicle control (18-FOLD free ETPC (17µM)): -7%
Max Dispersion (average raw data) (18-FOLD free ETPC (17µM)): 10.63
Max Dispersion percentage change compared to vehicle control (18-FOLD free ETPC (17µM)): 127%
RMP (average raw data) (18-FOLD free ETPC (17µM)): -90
RMP percentage change compared to vehicle control (18-FOLD free ETPC (17µM)): 5%
Refractoriness Escape percentage change compared to vehicle control (18-FOLD free ETPC (17µM)): 0%
STV (average raw data) (18-FOLD free ETPC (17µM)): 5.08
STV percentage change compared to vehicle control (18-FOLD free ETPC (17µM)): 477%
Triangulation (average raw data) (18-FOLD free ETPC (17µM)): 130
Triangulation percentage change compared to vehicle control (18-FOLD free ETPC (17µM)): -2%
Beat Escape (raw data) (18-FOLD free ETPC (17µM)): 1
EADs (raw data) (18-FOLD free ETPC (17µM)): 0
Refractoriness Escape (raw data) (18-FOLD free ETPC (17µM)): 0
AMAX (average raw data) (59-FOLD free ETPC (17µM)): 39
AMAX percentage change compared to vehicle control (59-FOLD free ETPC (17µM)): -63%
APD30 (average raw data) (59-FOLD free ETPC (17µM)): 48
APD30 percentage change compared to vehicle control (59-FOLD free ETPC (17µM)): -69%
APD50 (average raw data) (59-FOLD free ETPC (17µM)): 66
APD50 percentage change compared to vehicle control (59-FOLD free ETPC (17µM)): -67%
APD90 (average raw data) (59-FOLD free ETPC (17µM)): 169
APD90 percentage change compared to vehicle control (59-FOLD free ETPC (17µM)): -38%
Alternans (average raw data) (59-FOLD free ETPC (17µM)): 6.14
Alternans percentage change compared to vehicle control (59-FOLD free ETPC (17µM)): 354%
Beat Escape percentage change compared to vehicle control (59-FOLD free ETPC (17µM)): 100%
EADs percentage change compared to vehicle control (59-FOLD free ETPC (17µM)): 0%
ERP (average raw data) (59-FOLD free ETPC (17µM)): 0.38
ERP percentage change compared to vehicle control (59-FOLD free ETPC (17µM)): -10%
Max Dispersion (average raw data) (59-FOLD free ETPC (17µM)): 28.20
Max Dispersion percentage change compared to vehicle control (59-FOLD free ETPC (17µM)): 503%
RMP (average raw data) (59-FOLD free ETPC (17µM)): -74
RMP percentage change compared to vehicle control (59-FOLD free ETPC (17µM)): -9%
Refractoriness Escape percentage change compared to vehicle control (59-FOLD free ETPC (17µM)): 0%
STV (average raw data) (59-FOLD free ETPC (17µM)): 3.94
STV percentage change compared to vehicle control (59-FOLD free ETPC (17µM)): 2736%
Triangulation (average raw data) (59-FOLD free ETPC (17µM)): 121
Triangulation percentage change compared to vehicle control (59-FOLD free ETPC (17µM)): 1%
Beat Escape (raw data) (59-FOLD free ETPC (17µM)): 4
EADs (raw data) (59-FOLD free ETPC (17µM)): 0

— PMC5760531, “Action Potential Recording and Pro-arrhythmia Risk Analysis in Human Ventricular Trabeculae” (Frontiers in Physiology, 2018)
